Assay results reported in US11485741B2, “Macrocyclic toll-like receptor 7 (TLR7) agonists” (BRISTOL-MYERS SQUIBB COMPANY, priority 2018, dated 2022).

Tests used:
human TLR7 = molecular target: T1, human TLR7 (Homo sapiens, UniProt Q9NYK1); assay: HEK-Blue TLR7 reporter assay (SEAP reporter); assay type: cell-based; details: HEK-Blue TLR7 cells, 18 h treatment, SEAP readout; average if more than one assay; read-out: TLR7 Agonism HEK Blue ™ Assay EC50
T1 construct: host or cells: HEK-Blue TLR7 cells (engineered human embryonic kidney cells)
T1 sequence (Q9NYK1 27-1049): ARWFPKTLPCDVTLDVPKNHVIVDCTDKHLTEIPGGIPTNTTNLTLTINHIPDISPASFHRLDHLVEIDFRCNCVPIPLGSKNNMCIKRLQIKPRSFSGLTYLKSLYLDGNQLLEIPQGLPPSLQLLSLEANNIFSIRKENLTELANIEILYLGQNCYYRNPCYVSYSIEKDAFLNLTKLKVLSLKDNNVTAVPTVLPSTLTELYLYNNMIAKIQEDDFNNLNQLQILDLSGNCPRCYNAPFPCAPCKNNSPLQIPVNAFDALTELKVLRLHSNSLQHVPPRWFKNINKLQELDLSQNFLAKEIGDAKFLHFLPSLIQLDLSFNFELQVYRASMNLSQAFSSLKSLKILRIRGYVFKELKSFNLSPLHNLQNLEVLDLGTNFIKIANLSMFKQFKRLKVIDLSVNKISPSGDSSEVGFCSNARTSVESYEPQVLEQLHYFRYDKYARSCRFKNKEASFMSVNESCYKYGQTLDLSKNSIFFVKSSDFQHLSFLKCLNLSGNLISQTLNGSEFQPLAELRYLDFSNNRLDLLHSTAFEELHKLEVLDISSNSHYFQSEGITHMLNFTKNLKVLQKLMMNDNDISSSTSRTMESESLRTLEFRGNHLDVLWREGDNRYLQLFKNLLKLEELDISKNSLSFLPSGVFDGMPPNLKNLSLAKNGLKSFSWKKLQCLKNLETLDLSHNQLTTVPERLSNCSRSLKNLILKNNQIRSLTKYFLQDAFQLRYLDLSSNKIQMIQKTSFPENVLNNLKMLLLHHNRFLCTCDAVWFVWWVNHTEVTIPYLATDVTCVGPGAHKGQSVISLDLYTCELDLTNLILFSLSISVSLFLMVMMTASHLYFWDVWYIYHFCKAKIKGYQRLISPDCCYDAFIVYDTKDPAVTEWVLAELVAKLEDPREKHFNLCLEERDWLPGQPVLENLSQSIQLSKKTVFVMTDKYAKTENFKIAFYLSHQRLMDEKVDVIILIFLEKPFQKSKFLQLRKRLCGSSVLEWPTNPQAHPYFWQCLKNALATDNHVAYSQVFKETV
From the text: Table A presents biological activity data for compounds disclosed herein. One set of data relates TLR7 agonism activity using the HEK-Blue™ TLR7 reporter assay, as described in Example 11 hereinbelow. Another set of data relates to the induction of interleukin 6 (IL-6), a cytokine that plays an important role in the TLR7 pathway. […] In some instances, more that one TLR7 agonism or IL-6 induction assay was made; if so, the reported value is an average.
This example describes a method for assaying TLR7 agonist activity of the compounds disclosed in this specification.
HEK-Blue™ TLR7 cells were added to each well of a 384-well tissue-culture plate (15,000 cells per well) and incubated 16-18 h at 37° C., 5% CO2. Compounds (100 nl) were dispensed into wells containing the HEK-Blue™ TLR cells and the treated cells were incubated at 37° C., 5% CO2. After 18 h treatment ten microliters of freshly-prepared Quanti-Blue™ reagent (Invivogen) was added to each well, incubated for 30 min (37° C., 5% CO2) and SEAP levels measured using an Envision plate reader (OD=620 nm). […] EC50's can be determined with software such as Graphpad Prism™.

interleukin 6 (IL-6) = assay: Interleukin 6 induction assay in human whole blood (AlphaLISA); assay type: cell-based; details: Homo sapiens, 20 h, 20 h at 37° C., 100% set by resiquimod reference at 10 μM, average if more than one assay, read-out: IL-6 Induction EC50 (nM) (normalized 10 μM)
From the text: Table A presents biological activity data for compounds disclosed herein. One set of data relates TLR7 agonism activity using the HEK-Blue™ TLR7 reporter assay, as described in Example 11 hereinbelow. Another set of data relates to the induction of interleukin 6 (IL-6), a cytokine that plays an important role in the TLR7 pathway. […] In some instances, more that one TLR7 agonism or IL-6 induction assay was made; if so, the reported value is an average. This example describes a method for assaying interleukin 6 (IL 6) induction by compounds disclosed in this specification. Compounds suspended in DMSO were transferred to individual wells of a Matrix Technologies clear, V-bottom 384-well plate using ECHO acoustic liquid handling technology (25 nL per well). Human whole-blood samples (25 uL) were added to each well using a CyBio FeliX liquid handling instrument and the plate was shaken on a plate shaker for three minutes before incubating the reaction mixtures at 37° C. for 20 h. Basel RPMI 1640 medium (supplemented with L-glutamine) was then added to each well (25 uL per well) prior to liberating plasma from each sample by centrifugation (450×g, 5 min, ambient temperature). Treated plasma samples (3 uL) were subsequently transferred to individual wells of a white, shallow, 384-well ProxiPlate (PerkinElmer) using the FeliX liquid handling instrument and their IL6 levels were measured using AlphaLISA technology as described by the manufacturer (PerkinElmer).

Row | SMILES | EC50 (human TLR7) | EC50 (interleukin 6 (IL-6))
1 | Nc1nc2nc3c1nc(O)n3Cc1ccc(O)c(c1)C/C=C\CCO2 [Compound B4, reference compound] | 17 nM | 960 nM
2 | Nc1nc2nc3c1nc(O)n3Cc1ccc(O)c(c1)CCCCCO2 [Compound B5, reference compound] | 580 nM | –
3 | Nc1nc2nc3c1nc(O)n3Cc1ccc(Oc3ccc(CO)cc3)c(c1)C/C=C/CCO2 [IIa-01] | 51 nM | –
4 | Nc1nc2nc3c1nc(O)n3Cc1ccc(Oc3ccc(CNC4CC4)cc3)c(c1)C/C=C/CCO2 [IIa-02] | 4 nM | 5.2 nM
5 | Nc1nc2nc3c1nc(O)n3Cc1ccc(Oc3cccc(CNC4CC4)c3)c(c1)C/C=C\CCO2 [IIa-05] | 7.2 nM | 18 nM
6 | Nc1nc2nc3c1nc(O)n3Cc1ccc(Oc3cccc(CNC4CCC4)c3)c(c1)C/C=C\CCO2 [IIa-07] | 4.2 nM | 2.9 nM
7 | COCCNCc1ccc(Oc2ccc3cc2C/C=C/CCOc2nc(N)c4nc(O)n(c4n2)C3)cc1 [IIa-09] | 2.2 nM | 1.9 nM
8 | COC(=O)CNCc1ccc(Oc2ccc3cc2C/C=C/CCOc2nc(N)c4nc(O)n(c4n2)C3)cc1 [IIa-10] | 4.3 nM | 50 nM
9 | Nc1nc2nc3c1nc(O)n3Cc1ccc(Oc3ccc(CNC4CC4)cc3)c(c1)CCCCCO2 [IIa-11] | 6.6 nM | 5.5 nM
10 | Nc1nc2nc3c1nc(O)n3Cc1ccc(Oc3cccc(CNC4CC4)c3)c(c1)CCCCCO2 [IIa-12] | 29 nM | 110 nM
11 | Nc1nc2nc3c1nc(O)n3Cc1cc(cc(Oc3cccc(CNC4CCC4)c3)c1)C/C=C/CCO2 [IIa-14] | 19 nM | 140 nM
12 | Nc1nc2nc3c1nc(O)n3Cc1cc(cc(Oc3ccc(CNC4CCC4)cc3)c1)CCCCCO2 [IIa-16] | 42 nM | 250 nM
13 | Nc1nc2nc3c1nc(O)n3Cc1cc(cc(Oc3ccc(CNC4CCC4)cc3)c1)C/C=C/CCO2 [IIa-17] | 8.5 nM | 44 nM
14 | Nc1nc2nc3c1nc(O)n3Cc1ccc(-c3cnn(CCNC4CC4)c3)c(c1)C/C=C/CCO2 [IIb-01] | 0.67 nM | 42 nM
15 | Nc1nc2nc3c1nc(O)n3Cc1ccc(-c3cnn(CCNC4CC4)c3)c(c1)C/C=C\CCO2 [IIb-02] | 0.35 nM | 1.3 nM
16 | Nc1nc2nc3c1nc(O)n3Cc1ccc(-c3cnn(CCNC4CC4)c3)c(c1)CCCCCO2 [IIb-03] | 2.9 nM | 65 nM
17 | Nc1nc2nc3c1nc(O)n3Cc1ccc(-c3ccc(CNC4CCC4)nc3)c(c1)C/C=C/CCO2 [IIb-05] | 0.22 nM | 0.62 nM
18 | Nc1nc2nc3c1nc(O)n3Cc1ccc(-c3cnn(CCNC4CCC4)c3)c(c1)CCCCCO2 [IIb-08] | 1.7 nM | 6.2 nM
19 | Nc1nc2nc3c1nc(O)n3Cc1ccc(-c3ccc(CNC4CCC4)cc3)c(c1)C/C=C/CCO2 [IIb-10] | 1.1 nM | 0.41 nM
20 | Nc1nc2nc3c1nc(O)n3Cc1ccc(-c3cnc(CNC4CCC4)s3)c(c1)C/C=C/CCO2 [IIb-13] | 0.24 nM | 4.3 nM
21 | Nc1nc2nc3c1nc(O)n3Cc1ccc(-c3cc(CNC4CCC4)[nH]n3)c(c1)C/C=C/CCO2 [IIb-14] | 3 nM | 5.3 nM
22 | Nc1nc2nc3c1nc(O)n3Cc1ccc(-c3cc(CNC4CCC4)[nH]n3)c(c1)C/C=C\CCO2 [IIb-15] | 0.65 nM | 4.7 nM
23 | Nc1nc2nc3c1nc(O)n3Cc1ccc(-c3ccc(CNC4COC4)cc3)c(c1)C/C=C\CCO2 [IIb-33] | 0.42 nM | –
24 | Nc1nc2nc3c1nc(O)n3Cc1ccc(-c3cnn(C4CNC4)c3)c(c1)C/C=C/CCO2 [IIb-35] | 1.5 nM | –
25 | Nc1nc2nc3c1nc(O)n3Cc1ccc(-c3cnn(C4CCNCC4)c3)c(c1)C/C=C/CCO2 [IIb-36] | 1 nM | –
26 | CCOCc1nc2c(N)nc3ccccc3c2n1CC(C)(C)O [Resiquimod, resiquimod, reference compound] | – | 350 nM

Further compounds by falling EC50 (human TLR7), results first:

Row | EC50 (human TLR7) | SMILES | EC50 (interleukin 6 (IL-6))
27 | 210 nM | Nc1nc2nc3c1nc(O)n3Cc1cccc(c1)C/C=C/CCO2 [Compound B1, reference compound] | –
28 | 68 nM | Nc1nc2nc3c1nc(O)n3Cc1ccc(O)c(c1)C/C=C/CCO2 [Compound B3, reference compound] | 400 nM
29 | 33 nM | Nc1nc2nc3c1nc(O)n3Cc1cccc(c1)C/C=C\CCO2 [Compound B2, reference compound] | –
30 | 25 nM | Nc1nc2nc3c1nc(O)n3Cc1ccc(Oc3ccc(C(=O)NC4CNC4)cc3)c(c1)C/C=C\CCO2 [IIa-19] | 95 nM
31 | 21 nM | Nc1nc2nc3c1nc(O)n3Cc1ccc(-c3cn[nH]c3)c(c1)C/C=C/CCO2 [IIb-06] | 570 nM
32 | 15 nM | Nc1nc2nc3c1nc(O)n3Cc1ccc(Oc3cccc(C(=O)NC4CNC4)c3)c(c1)C/C=C\CCO2 [IIa-20] | 91 nM
33 | 10 nM | Nc1nc2nc3c1nc(O)n3Cc1cc(cc(Oc3ccc(CNC4CC4)cc3)c1)C/C=C/CCO2 [IIa-18] | 32 nM
34 | 9.2 nM | Nc1nc2nc3c1nc(O)n3Cc1cc(cc(Oc3ccc(CNC4CC4)cc3)c1)C/C=C\CCO2 [IIa-15] | 57 nM
35 | 5.3 nM | Nc1nc2nc3c1nc(O)n3Cc1ccc(Oc3cccc(CNC4CC4)c3)c(c1)C/C=C/CCO2 [IIa-03] | 47 nM
36 | 4.2 nM | Nc1nc2nc3c1nc(O)n3Cc1ccc(-c3ccc(CNC4CCC4)cc3)c(c1)CCCCCO2 [IIb-12] | 13 nM
37 | 1.6 nM | Nc1nc2nc3c1nc(O)n3Cc1ccc(-c3cnn(CC(=O)NC4CNC4)c3)c(c1)C/C=C\CCO2 [IIb-39] | –
38 | 1.2 nM | Nc1nc2nc3c1nc(O)n3Cc1ccc(-c3ccc(CNC4CCC4)cc3)c(c1)C/C=C/CCCO2 [IIb-16] | 3.6 nM
39 | 1 nM | Nc1nc2nc3c1nc(O)n3Cc1ccc(Oc3ccc(CNC4CCC4)cc3)c(c1)C/C=C\CCO2 [IIa-06] | 2.2 nM
40 | 0.94 nM | Nc1nc2nc3c1nc(O)n3Cc1cc(cc(Oc3ccc(CNC4CCC4)cc3)c1)C/C=C\CCO2 [IIa-13] | 13 nM
41 | 0.91 nM | Nc1nc2nc3c1nc(O)n3Cc1ccc(Oc3ccc(CNC4CC4)cc3)c(c1)C/C=C\CCO2 [IIa-04] | 4.4 nM
42 | 0.35 nM | Nc1nc2nc3c1nc(O)n3Cc1ccc(-c3cnn(CCNC4CCC4)c3)c(c1)C/C=C\CCO2 [IIb-09] | 2.1 nM
43 | 0.33 nM | Nc1nc2nc3c1nc(O)n3Cc1ccc(-c3ccc(CNC4CCC4)cc3)c(c1)C/C=C\CCO2 [IIb-11] | 0.68 nM
44 | 0.28 nM | Nc1nc2nc3c1nc(O)n3Cc1ccc(-c3ccc(CNC4CC4)nc3)c(c1)C/C=C/CCO2 [IIb-04] | 10 nM
45 | 0.22 nM | Nc1nc2nc3c1nc(O)n3Cc1ccc(-c3cnn(CCNC4CCC4)c3)c(c1)C/C=C/CCO2 [IIb-07] | 1.6 nM
